Assay results from ChEMBL document CHEMBL1154825, “Schweinfurthins I and J from Macaranga schweinfurthii” (2010).

Key:
Format in all cases: functional
LOX IMVI = assay: Growth inhibition of human LOXIMVI cells
M14 = assay: Growth inhibition of human M14 cells
MDA-MB-435 = assay: Growth inhibition of human MDA-MB-435 cells
SK-MEL-2 = assay: Growth inhibition of human SK-MEL-2 cells
SK-MEL-28 = assay: Growth inhibition of human SK-MEL-28 cells
SK-MEL-5 = assay: Growth inhibition of human SK-MEL-5 cells
UACC-257 = assay: Growth inhibition of human UACC257 cells
UACC-62 = assay: Growth inhibition of human UACC62 cells
OVCAR-3 = assay: Growth inhibition of human OVCAR-3 cells
OVCAR-5 = assay: Growth inhibition of human OVCAR5 cells
OVCAR-8 = assay: Growth inhibition of human OVCAR8 cells
786-0 = assay: Growth inhibition of human 786-0 cells
A498 = assay: Growth inhibition of human A498 cells
ACHN = assay: Growth inhibition of human ACHN cells
CAKI-1 = assay: Growth inhibition of human Caki1 cells
RXF 393 = assay: Growth inhibition of human […] cells
TK-10 = assay: Growth inhibition of human TK10 cells
UO-31 = assay: Growth inhibition of human UO31 cells
PC-3 = assay: Growth inhibition of human PC3 cells
MCF7 = assay: Growth inhibition of human MCF7 cells
MDA-MB-231 = assay: Growth inhibition of human MDA-MB-231 cells
[1] = Growth inhibition of human Hs 578T cells
BT-549 = assay: Growth inhibition of human BT549 cells
T47D = assay: Growth inhibition of human T47D cells
[2] = Growth inhibition of human NCI60 cells
CCRF-CEM = assay: Growth inhibition of human CCRF-CEM cells
HL-60(TB) = assay: Growth inhibition of human HL-60(TB) cells
K562 = assay: Growth inhibition of human K562 cells
MOLT-4 = assay: Growth inhibition of human MOLT4 cells
RPMI-8226 = assay: Growth inhibition of human RPMI8226 cells
A549 = assay: Growth inhibition of human A549 cells
HOP-62 = assay: Growth inhibition of human HOP62 cells
HOP-92 = assay: Growth inhibition of human HOP92 cells
NCI-H23 = assay: Growth inhibition of human NCI-H23 cells
NCI-H460 = assay: Growth inhibition of human NCI-H460 cells
NCI-H522 = assay: Growth inhibition of human NCI-H522 cells
HCC 2998 = assay: Growth inhibition of human HCC2998 cells
HCT-15 = assay: Growth inhibition of human HCT15 cells
HT-29 = assay: Growth inhibition of human HT-29 cells
KM12 = assay: Growth inhibition of human KM12 cells
SW-620 = assay: Growth inhibition of human SW620 cells
SF-268 = assay: Growth inhibition of human SF268 cells
SF-539 = assay: Growth inhibition of human SF539 cells
SNB-75 = assay: Growth inhibition of human SNB75 cells
[3] = read-out: pLC50 (the source's name) (converted)

## CC(C)=CCC/C(C)=C/CC/C(C)=C/Cc1c(O)cc(/C=C/c2ccc(O)cc2)cc1O [SCHWEINFURTHIN J]
LOX IMVI
  GI50: 1.7 µM
LOX IMVI; [3]
  CC50: 5.89 µM
LOX IMVI; read-out: pTGI (converted)
  TGI: 3.16 µM
M14
  GI50: 2 µM
M14; [3]
  CC50: 8.51 µM
M14; read-out: pTGI (converted)
  TGI: 4.17 µM
MDA-MB-435
  GI50: 3.09 µM
MDA-MB-435; [3]
  CC50: 46.8 µM
MDA-MB-435; read-out: pTGI (converted)
  TGI: 10.5 µM
SK-MEL-2
  GI50: 2.75 µM
  LC50: 31.6 µM
SK-MEL-2; read-out: pTGI (converted)
  TGI: 8.13 µM
SK-MEL-28
  GI50: 2.45 µM
SK-MEL-28; [3]
  CC50: 23.4 µM
SK-MEL-28; read-out: pTGI (converted)
  TGI: 6.46 µM
SK-MEL-5
  GI50: 1.7 µM
SK-MEL-5; [3]
  CC50: 5.75 µM
SK-MEL-5; read-out: pTGI (converted)
  TGI: 3.16 µM
UACC-257
  GI50: 4.68 µM
  LC50: 41.7 µM
UACC-257; read-out: pTGI (converted)
  TGI: 16.2 µM
UACC-62
  GI50: 2.24 µM
UACC-62; [3]
  CC50: 15.8 µM
UACC-62; read-out: pTGI (converted)
  TGI: 5.25 µM
OVCAR-3
  GI50: 2 µM
  LC50 (concentration killing 50% of cells): 14.1 µM
OVCAR-3; read-out: pTGI (converted)
  TGI: 4.79 µM
OVCAR-5
  GI50: 4.47 µM
  LC50: 44.7 µM
OVCAR-5; read-out: pTGI (converted)
  TGI: 15.8 µM
OVCAR-8
  GI50: 3.31 µM
  LC50: 43.7 µM
OVCAR-8; read-out: pTGI (converted)
  TGI: 11.5 µM
786-0
  GI50: 1.95 µM
786-0; [3]
  CC50: 9.77 µM
786-0; read-out: pTGI (converted)
  TGI: 4.37 µM
A498
  GI50: 2.82 µM
  LC50: 45.7 µM
A498; read-out: pTGI (converted)
  TGI: 16.6 µM
ACHN
  GI50: 3.8 µM
ACHN; [3]
  CC50: 38.9 µM
ACHN; read-out: pTGI (converted)
  TGI: 13.5 µM
CAKI-1
  GI50: 1.82 µM
CAKI-1; [3]
  CC50: 25.1 µM
CAKI-1; read-out: pTGI (converted)
  TGI: 5.89 µM
RXF 393
  GI50: 1.86 µM
RXF 393; [3]
  CC50: 6.61 µM
RXF 393; read-out: pTGI (converted)
  TGI: 3.55 µM
TK-10
  GI50: 2.63 µM
  LC50: 31.6 µM
TK-10; read-out: pTGI (converted)
  TGI: 9.33 µM
UO-31
  GI50: 1.32 µM
  LC50 (concentration killing 50% of cells): 34.7 µM
UO-31; read-out: pTGI (converted)
  TGI: 10.2 µM
PC-3
  GI50: 3.02 µM
  LC50: 42.7 µM
PC-3; read-out: pTGI (converted)
  TGI: 13.5 µM
MCF7
  GI50: 2.57 µM
  LC50: 43.7 µM
MCF7; read-out: pTGI (converted)
  TGI: 11.2 µM
MDA-MB-231
  GI50: 3.47 µM
  LC50: 44.7 µM
MDA-MB-231; read-out: pTGI (converted)
  TGI: 11.7 µM
[1]
  GI50: 2.88 µM
  LC50: 89.1 µM
[1]; read-out: pTGI (converted)
  TGI: 12.3 µM
BT-549
  GI50: 2.57 µM
  LC50: 30.9 µM
BT-549; read-out: pTGI (converted)
  TGI: 8.91 µM
T47D
  GI50: 2.63 µM
  LC50: 52.5 µM
T47D; read-out: pTGI (converted)
  TGI: 13.2 µM
[2]
  GI50: 2.8 µM
CCRF-CEM
  GI50: 0.537 µM
  LC50: > 100 µM
CCRF-CEM; read-out: pTGI (converted)
  TGI: 17 µM
HL-60(TB)
  GI50: 2.57 µM
HL-60(TB); [3]
  CC50: > 100 µM
HL-60(TB); read-out: pTGI (converted)
  TGI: 18.6 µM
K562
  GI50: 3.72 µM
  LC50: > 100 µM
K562; read-out: pTGI (converted)
  TGI: 22.9 µM
MOLT-4
  GI50: 4.07 µM
  LC50: > 100 µM
MOLT-4; read-out: pTGI (converted)
  TGI: 25.1 µM
RPMI-8226
  GI50: 3.16 µM
  LC50: > 100 µM
RPMI-8226; read-out: pTGI (converted)
  TGI: 14.8 µM
A549
  GI50: 3.31 µM
  LC50: 42.7 µM
A549; read-out: pTGI (converted)
  TGI: 12.9 µM
HOP-62
  GI50: 2.04 µM
  LC50: 7.41 µM
HOP-62; read-out: pTGI (converted)
  TGI: 3.89 µM
HOP-92
  GI50: 2.29 µM
HOP-92; [3]
  CC50: 34.7 µM
HOP-92; read-out: pTGI (converted)
  TGI: 8.32 µM
NCI-H23
  GI50: 3.02 µM
  LC50: 36.3 µM
NCI-H23; read-out: pTGI (converted)
  TGI: 8.51 µM
NCI-H460
  GI50: 3.24 µM
  LC50: 70.8 µM
NCI-H460; read-out: pTGI (converted)
  TGI: 12 µM
NCI-H522
  GI50: 1.82 µM
  LC50: 13.2 µM
NCI-H522; read-out: pTGI (converted)
  TGI: 4.47 µM
HCC 2998
  GI50: 2.69 µM
  LC50: 21.4 µM
HCC 2998; read-out: pTGI (converted)
  TGI: 6.31 µM
HCT-15
  GI50: 3.24 µM
  LC50 (50% lethal concentration): 64.6 µM
HCT-15; read-out: pTGI (converted)
  TGI: 16.6 µM
HT-29
  GI50: 3.98 µM
  LC50: 49 µM
HT-29; read-out: pTGI (converted)
  TGI: 15.8 µM
KM12
  GI50: 2.75 µM
  LC50: 31.6 µM
KM12; read-out: pTGI (converted)
  TGI: 8.91 µM
SW-620
  GI50: 3.16 µM
  LC50: 66.1 µM
SW-620; read-out: pTGI (converted)
  TGI: 12 µM
SF-268
  GI50: 2.63 µM
  LC50: 38 µM
SF-268; read-out: pTGI (converted)
  TGI: 11.5 µM
SF-539
  GI50: 2.51 µM
  LC50: 18.6 µM
SF-539; read-out: pTGI (converted)
  TGI: 5.62 µM
SNB-75
  GI50: 8.91 µM
  LC50: 46.8 µM
SNB-75; read-out: pTGI (converted)
  TGI: 21.4 µM
